Source: PubChem BioAssay AID256 (DTP/NCI, 2004)
Several values for one entry are separate records, joined by “and”; a condition that tells them apart may be missing. Equal entries are not always repeated. Inconclusive results and toxic doses are left out.

Test system: CD2F1 mice, L1210 leukemia ip, survival T/C
Assay: NCI In Vivo Anticancer Drug Screen. Data for tumor model L1210 Leukemia (intraperitoneal) in CD2F1 (CDF1) mice
Conditions: higher = longer survival
Summary of the method: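 Antitumor effect is scored in animals hosting a serially transplanted tumor. Values compare compound-dosed animals against vehicle-only controls as a simple quotient.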

[1] = endpoint: mean survival time, dose: 12.5 mg/kg/injection, schedule: Q01DX009 (ip), vehicle: saline with Tween-80
[2] = endpoint: mean survival time, dose: 25.0 mg/kg/injection, schedule: Q01DX009 (ip), vehicle: saline with Tween-80
[3] = endpoint: mean survival time, dose: 100.0 mg/kg/injection, schedule: Q01DX001 (ip), vehicle: saline
[4] = endpoint: mean survival time, dose: 100.0 mg/kg/injection, schedule: Q01DX009 (ip), vehicle: saline with Tween-80
[5] = endpoint: mean survival time, dose: 200.0 mg/kg/injection, schedule: Q01DX001 (ip), vehicle: saline
[6] = endpoint: mean survival time, dose: 200.0 mg/kg/injection, schedule: Q01DX009 (ip), vehicle: saline
[7] = endpoint: mean survival time, dose: 400.0 mg/kg/injection, schedule: Q01DX001 (ip), vehicle: saline
[8] = endpoint: mean survival time, dose: 400.0 mg/kg/injection, schedule: Q01DX009 (ip), vehicle: saline
[9] = endpoint: mean survival time, dose: 100.0 mg/kg/injection, schedule: Q04DX003 (ip), vehicle: saline with Tween-80
[10] = endpoint: mean survival time, dose: 200.0 mg/kg/injection, schedule: Q04DX003 (ip), vehicle: saline with Tween-80
[11] = endpoint: mean survival time, dose: 400.0 mg/kg/injection, schedule: Q04DX003 (ip), vehicle: saline with Tween-80
[12] = endpoint: mean survival time, dose: 100.0 mg/kg/injection, schedule: Q01DX009 (ip), vehicle: saline
[13] = endpoint: mean survival time, dose: 150.0 mg/kg/injection, schedule: Q01DX009 (ip), vehicle: saline
[14] = endpoint: mean survival time, dose: 200.0 mg/kg/injection, schedule: Q01DX009 (ip), vehicle: saline with Tween-80

## CC1(C)N=C(N)N=C(N)N1c1ccc(CCC(=O)Nc2ccc(S(=O)(=O)F)cc2)cc1
[1]
  T/C: 112 % of control
[2]
  T/C: 117 % of control
[3]
  T/C: 102 % of control
[4]
  T/C: 115 % of control
[5]
  T/C: 111 % of control
[6]
  T/C: 123 % of control
endpoint: mean survival time, dose: 300.0 mg/kg/injection, schedule: Q01DX009 (ip), vehicle: saline
  T/C: 171 % of control
[7]
  T/C: 120 % of control
[8]
  T/C: 123 % of control

## CCCCCCCCC(O)C(O)CCCCCCCC(=O)O (stereo not given)
endpoint: mean survival time, dose: 100.0 mg/kg/injection, schedule: Q04DX003 (ip), vehicle: other
  T/C: 93 % of control
endpoint: mean survival time, dose: 200.0 mg/kg/injection, schedule: Q04DX003 (ip), vehicle: other
  T/C: 98 % of control
endpoint: mean survival time, dose: 400.0 mg/kg/injection, schedule: Q04DX003 (ip), vehicle: other
  T/C: 95 % of control

## CNC(=O)NNc1ccccc1
[9]
  T/C: 102 % of control
[10]
  T/C: 98 % of control
[11]
  T/C: 104 % of control

## Cc1noc(C)c1CO
[12]
  T/C: 100 % of control
[6]
  T/C: 101 % of control
[8]
  T/C: 101 % of control

## CCCC[NH-].CCCC[NH-].O=C(O)CC(=O)O.[Pt+2]
endpoint: mean survival time, dose: 6.25 mg/kg/injection, schedule: Q04DX003 (ip), vehicle: saline with Tween-80
  T/C: 96 % of control
endpoint: mean survival time, dose: 25.0 mg/kg/injection, schedule: Q04DX003 (ip), vehicle: saline with Tween-80
  T/C: 96 % of control
[9]
  T/C: 98 % of control

## Clc1ccc(-c2cc(C3CO3)c3cc(Cl)cc(Cl)c3n2)cc1 (stereo not given)
[3]
  T/C: 91 % of control
[5]
  T/C: 97 % of control
[7]
  T/C: 91 % of control

## Nc1ccc(OC(=O)c2ccccc2)cc1
endpoint: mean survival time, dose: 12.5 mg/kg/injection, schedule: Q01DX001 (ip), vehicle: saline with Tween-80
  T/C: 92 % of control
[1]
  T/C: 91 % of control
endpoint: mean survival time, dose: 25.0 mg/kg/injection, schedule: Q01DX001 (ip), vehicle: saline with Tween-80
  T/C: 90 % of control
[2]
  T/C: 86 % of control
endpoint: mean survival time, dose: 50.0 mg/kg/injection, schedule: Q01DX001 (ip), vehicle: saline with Tween-80
  T/C: 90 % of control

## C=CC[As](=O)(O)CCC
endpoint: mean survival time, dose: 25.0 mg/kg/injection, schedule: Q01DX009 (ip), vehicle: saline
  T/C: 100 % of control
endpoint: mean survival time, dose: 50.0 mg/kg/injection, schedule: Q01DX009 (ip), vehicle: saline
  T/C: 98 % of control
[4]
  T/C: 114 % of control
[12]
  T/C: 97 % of control

## NCCCNC/C=C/CNCCCN
endpoint: mean survival time, dose: 37.5 mg/kg/injection, schedule: Q01DX009 (ip), vehicle: saline
  T/C: 98 % of control
endpoint: mean survival time, dose: 75.0 mg/kg/injection, schedule: Q01DX009 (ip), vehicle: saline
  T/C: 101 % of control
[13]
  T/C: 101 % of control

## O=C(CC(O)(C(F)(F)F)C(F)(F)F)c1cccc(C(F)(F)F)c1
endpoint: mean survival time, dose: 100.0 mg/kg/injection, schedule: Q01DX001 (ip), vehicle: saline with Tween-80
  T/C: 90 % of control
endpoint: mean survival time, dose: 200.0 mg/kg/injection, schedule: Q01DX001 (ip), vehicle: saline with Tween-80
  T/C: 108 % of control
endpoint: mean survival time, dose: 400.0 mg/kg/injection, schedule: Q01DX001 (ip), vehicle: saline with Tween-80
  T/C: 103 % of control

## C=COCCSCC
endpoint: mean survival time, dose: 50.0 mg/kg/injection, schedule: Q04DX003 (ip), vehicle: saline
  T/C: 98 % of control
[3]
  T/C: 98 % of control
endpoint: mean survival time, dose: 100.0 mg/kg/injection, schedule: Q04DX003 (ip), vehicle: saline
  T/C: 98 % of control
[5]
  T/C: 97 % of control
endpoint: mean survival time, dose: 200.0 mg/kg/injection, schedule: Q04DX003 (ip), vehicle: saline
  T/C: 104 % of control
[7]
  T/C: 101 % of control

## N#Cc1nc2c(n(O)c1=N)CCC/C2=N\O
endpoint: mean survival time, dose: 100.0 mg/kg/injection, schedule: Q04DX003 (ip), vehicle: Klucel (hydroxypropylcellulose) (HPC)
  T/C: 98 % of control
endpoint: mean survival time, dose: 200.0 mg/kg/injection, schedule: Q04DX003 (ip), vehicle: Klucel (hydroxypropylcellulose) (HPC)
  T/C: 98 % of control
endpoint: mean survival time, dose: 400.0 mg/kg/injection, schedule: Q04DX003 (ip), vehicle: Klucel (hydroxypropylcellulose) (HPC)
  T/C: 91 % of control

## CC(O)CN1CCOCC1 (stereo not given)
[4]
  T/C: 101 % of control
[14]
  T/C: 105 % of control
endpoint: mean survival time, dose: 400.0 mg/kg/injection, schedule: Q01DX009 (ip), vehicle: saline with Tween-80
  T/C: 100 % of control

## CCCCCCCCCCCC(=O)N(CCCC)CCCC
endpoint: mean survival time, dose: 100.0 mg/kg/injection, schedule: Q04DX002 (ip), vehicle: saline
  T/C: 103 % of control
endpoint: mean survival time, dose: 200.0 mg/kg/injection, schedule: Q04DX002 (ip), vehicle: saline
  T/C: 103 % of control
endpoint: mean survival time, dose: 400.0 mg/kg/injection, schedule: Q04DX002 (ip), vehicle: saline
  T/C: 106 % of control

## O=C(O)c1cccc(COc2ccc([N+](=O)[O-])cc2Cl)c1
[4]
  T/C: 101 % of control
[9]
  T/C: 91 % of control
[14]
  T/C: 93 % of control
[10]
  T/C: 86 % of control
[11]
  T/C: 97 % of control

## CC1C(=O)OC(C)(C)C1(C)C (stereo not given)
[2]
  T/C: 98 % of control
endpoint: mean survival time, dose: 50.0 mg/kg/injection, schedule: Q01DX009 (ip), vehicle: saline with Tween-80
  T/C: 98 % of control
[9]
  T/C: 104 % of control

## CC(C)(C[NH-])C[NH-].O=C(O)CC(=O)O.[Pt+2]
endpoint: median survival time, dose: 0.78 mg/kg/injection, schedule: Q04DX003 (ip), vehicle: water
  T/C: 116 % of control
endpoint: median survival time, dose: 1.56 mg/kg/injection, schedule: Q04DX003 (ip), vehicle: water
  T/C: 113 % of control
endpoint: median survival time, dose: 3.12 mg/kg/injection, schedule: Q04DX003 (ip), vehicle: water
  T/C: 112 % of control
endpoint: median survival time, dose: 3.13 mg/kg/injection, schedule: Q04DX003 (ip), vehicle: distilled water + Tween-80
  T/C: 123 % of control
endpoint: median survival time, dose: 12.5 mg/kg/injection, schedule: Q04DX003 (ip), vehicle: distilled water + Tween-80
  T/C: 116 % of control
endpoint: median survival time, dose: 12.5 mg/kg/injection, schedule: Q04DX003 (ip), vehicle: water
  T/C: 112 % of control
endpoint: median survival time, dose: 25.0 mg/kg/injection, schedule: Q04DX003 (ip), vehicle: distilled water + Tween-80
  T/C: 98 % of control

## CCn1cnc2c(=S)nc[nH]c21
endpoint: mean survival time, dose: 9.4 mg/kg/injection, schedule: Q03HX024 (ip), vehicle: saline
  T/C: 107 % of control
endpoint: mean survival time, dose: 15.0 mg/kg/injection, schedule: Q01DX009 (ip), vehicle: saline
  T/C: 104 % of control
endpoint: mean survival time, dose: 15.0 mg/kg/injection, schedule: Q03HX008 (ip), vehicle: saline
  T/C: 121 % of control
endpoint: mean survival time, dose: 18.8 mg/kg/injection, schedule: Q03HX016 (ip), vehicle: saline
  T/C: 101 % of control
endpoint: mean survival time, dose: 30.0 mg/kg/injection, schedule: Q01DX009 (ip), vehicle: saline
  T/C: 113 % of control
endpoint: mean survival time, dose: 37.5 mg/kg/injection, schedule: Q03HX024 (ip), vehicle: saline
  T/C: 156 % of control
endpoint: mean survival time, dose: 56.3 mg/kg/injection, schedule: Q03HX024 (ip), vehicle: saline
  T/C: 163 % of control
endpoint: mean survival time, dose: 60.0 mg/kg/injection, schedule: Q03HX008 (ip), vehicle: saline
  T/C: 161 % of control
endpoint: mean survival time, dose: 75.0 mg/kg/injection, schedule: Q03DX003 (ip), vehicle: saline
  T/C: 101 % of control
endpoint: mean survival time, dose: 75.0 mg/kg/injection, schedule: Q03HX016 (ip), vehicle: saline
  T/C: 161 % of control
endpoint: mean survival time, dose: 75.0 mg/kg/injection, schedule: Q04DX003 (ip), vehicle: saline
  T/C: 108 % of control and 109 % of control
endpoint: mean survival time, dose: 120.0 mg/kg/injection, schedule: Q01DX009 (ip), vehicle: saline
  T/C: 87 % of control
endpoint: mean survival time, dose: 150.0 mg/kg/injection, schedule: Q01DX001 (ip), vehicle: saline
  T/C: 115 % of control
endpoint: mean survival time, dose: 150.0 mg/kg/injection, schedule: Q01DX007 (ip), vehicle: saline
  T/C: 96 % of control
[13]
  T/C: 106 % of control
endpoint: mean survival time, dose: 150.0 mg/kg/injection, schedule: Q03DX003 (ip), vehicle: saline
  T/C: 112 % of control
endpoint: mean survival time, dose: 300.0 mg/kg/injection, schedule: Q04DX003 (ip), vehicle: saline
  T/C: 112 % of control
endpoint: mean survival time, dose: 300.0 mg/kg/injection, schedule: Q08DX002 (ip), vehicle: saline
  T/C: 151 % of control
endpoint: mean survival time, dose: 600.0 mg/kg/injection, schedule: Q08DX002 (ip), vehicle: saline
  T/C: 105 % of control
endpoint: median survival time, dose: 12.5 mg/kg/injection, schedule: Q01DX009 (ip), vehicle: saline with Tween-80
  T/C: 118 % of control
endpoint: median survival time, dose: 25.0 mg/kg/injection, schedule: Q01DX009 (ip), vehicle: saline with Tween-80
  T/C: 118 % of control
endpoint: median survival time, dose: 31.3 mg/kg/injection, schedule: Q01DX009 (ip), vehicle: saline
  T/C: 100 % of control and 111 % of control
endpoint: median survival time, dose: 62.5 mg/kg/injection, schedule: Q01DX009 (ip), vehicle: saline
  T/C: 188 % of control
endpoint: median survival time, dose: 100.0 mg/kg/injection, schedule: Q01DX009 (ip), vehicle: saline with Tween-80
  T/C: 183 % of control
endpoint: median survival time, dose: 125.0 mg/kg/injection, schedule: Q01DX009 (ip), vehicle: saline
  T/C: 116 % of control
endpoint: median survival time, dose: 200.0 mg/kg/injection, schedule: Q01DX009 (ip), vehicle: saline with Tween-80
  T/C: 118 % of control
